Measured values published in patent US20210332024A1, “MODULATORS OF PIN1 ACTIVITY AND USES THEREOF” (Yeda Research and Development Co. Ltd., priority 2019, published 2021).

Key:
catalytic domain of Pin1 = target: T1, catalytic domain of Pin1 (Homo sapiens, UniProt Q13526); assay: Intact protein LC/MS labeling of Pin1; format: binding
T1 construct: The purified catalytic domain of Pin1 was incubated with the fragment library
Description: 993 compounds were transferred to a 384-well plate working copy by combining 0.5 μl of 20 mM stock solution of four or five compounds per well. The catalytic domain of Pin1 (2 μM) in 20 mM Tris, 75 mM NaCl, pH 7.5 was incubated with 200 μM for each compound and moderately shaken for 24 hours at 4° C. The reaction was stopped by the addition of formic acid to 0.4% (v/v) final concentration.
Liquid chromatography/mass spectroscopy runs were performed on an Acquity™ UPLC® H-class system (Waters) in positive ion mode using electrospray ionization (ESI). UPLC separation was performed on a C4 column (300 Å, 1.7 μM, […]). The column was held at 40° C., and the autosampler at 10° C. Mobile solution A was 0.1% formic acid in water and mobile phase B was 0.1% formic acid in acetonitrile. Run flow was 0.4 ml/minute; and a gradient of 20% B for 2 minutes, increasing linearly to 60% B for 3 minutes, holding at 60% B for 1.5 minutes, changing to 0% B in 0.1 minute and holding at 0% for 1.4 minutes, was used. Desolvation temperature was 500° C. with a flow rate of 1000 liters/hour. The capillary voltage was 0.69 kV and cone voltage 46 V. Raw data was processed using OpenLynx™ software and deconvoluted using the MaxEnt tool. Labeling assignment was performed as described in Resnick et al. [J Am Chem Soc 2019, 141:8951-8968].
For the screening 2 μl of each of the 448 click products as 50 μM DMSO stocks were transferred into a 384-well plate working plate. 48 μl of catalytic domain of Pin1 (2 μM) in 20 mM Tris (pH 7.5) with 75 mM NaCl were added and moderately shaken and incubated for 15 minutes at room temperature. The reaction was stopped by the addition of formic acid to 0.4% (v/v) final concentration (20 μl). The mixtures were analyzed by liquid chromatography/mass spectroscopy analogously to the electrophile library incubations described herein. Hits were retrospectively analyzed by liquid chromatography/mass spectroscopy (LC-MS) to ensure reaction completion.
For each measured well, processed peaks were searched to match the mass of unlabeled protein or common small adducts of the unlabeled protein, which were found in the control sample or labeled protein. Labeling percentage for a compound was determined as the labeling of a specific compound divided by the overall detected protein species. Peaks whose mass could not be assigned were discarded from the overall labeling calculation. Data was analyzed using a python script for processing the MaxEnt-deconvoluted spectra. Peaks were normalized from ion counts to percentages, where the highest peak is defined as 100%. The unlabeled protein mass is deduced from a reference well that contains just the protein.
The purified catalytic domain of Pin1 was incubated with the fragment library (2 μM protein, 200 μM compound; 24 hours at 4° C.), followed by intact protein liquid chromatography/mass-spectrometry (LC/MS) to identify and quantify compound labeling. FIG. 1 depicts an example of a compound identified in this manner.
Based on the docking predictions, a total of 26 compounds that featured a range of small or bulky aliphatic, arylic, biphenylic or heterocyclic side-chains (structures depicted in FIG. 5), were synthesized or purchased. In order to identify potent binders, the irreversible labeling efficiency of these second-generation compounds was assessed alongside the original screening hits under more stringent conditions, with a 1:1 ratio of protein to compound (2 μM compound; 1 hour at room temperature).
For further optimization of the lipophilic moiety, an alkyne side chain-bearing analog was prepared, which was derivatized with 448 different azides using copper-catalyzed azide-alkyne cycloaddition (CuAAC).

[1] = Thiol reactivity assay (DTNB); format: physicochemical; settings: 200 μM compound, pH 7.4, 37° C.
Description: 50 μM DTNB (dithionitrobenzoic acid) was incubated with 200 μM TCEP (tris(2-carboxytehyl)phosphine) in 20 mM sodium phosphate buffer (pH 7.4) with 150 mM NaCl, for 5 minutes at room temperature, in order to obtain TNB^2− (thionitrobenzoate dianion). 200 μM compounds were subsequently added to the TNB^2−, followed by immediate UV absorbance measurement at 412 nm (at 37° C.). The UV absorbance was acquired every 15 minutes for 7 hours. The assay was performed in a 384-well plate using a Spark™ 10M plate reader (Tecan). Background absorbance of compounds was subtracted by measuring the absorbance at 412 nm of each compound under the same conditions without DTNB. Compounds were measured in triplicates. The data was fitted to a second order reaction equation such that the rate constant k is the slope of ln([A][B0]/[B][A0]), where [A0] and [B0] are the initial concentrations of the compound (200 μM) and TNB^2− (100 μM) respectively, and [A] and [B] are the remaining concentrations as a function of time, as determined from the spectrometric measurement. Linear regression using Prism® software was performed to fit the rate against the first four hours of measurements.
In order to estimate the influence of the various lipophilic moieties on “warhead” reactivity [Flanagan et al., J Med Chem 2014, 57:10072-10079; Lonsdale et al., J Chem Inf Model 2017, 57:3124-3137; Dahal et al., Medchemcomm 2016, 7:864-872], the thiol reactivity of the top ten binders of the second and third generation was assessed using a high-throughput assay previously applied to the entire fragment library, as described in Resnick et al. [J Am Chem Soc 2019, 141:8951-8968]. In brief, the second-order rate constant was evaluated for a model thiol, which reflects trends in general reactivity towards thiol groups.

[2] = 2 μM Pin1 with 200 μM test compound for 24 hours at 4° C.
[3] = 2 μM Pin1 with 2 μM test compound for 1 hour at room temperature
[4] = 2 μM Pin1 with 2 μM test compound for 15 minutes at room temperature

T1 sequence (Q13526 52-163 limits assumed): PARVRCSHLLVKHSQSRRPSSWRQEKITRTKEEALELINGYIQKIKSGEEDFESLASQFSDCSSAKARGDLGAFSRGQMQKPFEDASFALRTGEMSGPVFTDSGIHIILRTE

| Compound | Labeling [%] (catalytic domain of Pin1; [2]) | Reactivity Log k [1] | Reactivity k [1] [M⁻¹ s⁻¹] | Labeling [%] (catalytic domain of Pin1; [3]) | Labeling [%] (catalytic domain of Pin1; [4]) |
| --- | --- | --- | --- | --- | --- |
| O=C(CCl)N(C1CCCC1)C1CCS(=O)(=O)C1 (stereo not drawn) [PCM-0102313] | 83 | −6.97 | 1.07e-07 | – | – |
| CC(c1ccccc1)N(C(=O)CCl)C1CCS(=O)(=O)C1 (stereo not drawn) [Pin1-2-2] | – | −7.09 | 8.06e-08 | 27 | – |
| CCC(C)N(C(=O)CCl)C1CCS(=O)(=O)C1 (stereo not drawn) [Pin1-053] | – | −6.91 | 1.24e-07 | 28 | – |
| NS(=O)(=O)c1ccc(-n2cc(CN(C(=O)CCl)C3CCS(=O)(=O)C3)nn2)cc1 (stereo not drawn) [Compound P1-03-G07] | – | −5.86 | 1.37e-06 | – | 73 |
| CC1(NC(=O)CCl)CCS(=O)(=O)C1 (stereo not drawn) [PCM-0102230] | 87 | −7.05 | 8.87e-08 | 0 | – |
| O=C(CCl)N(Cc1ccccc1-c1cccc(C(F)(F)F)c1)C1CCS(=O)(=O)C1 (stereo not drawn) [Pin1-3-8] | – | −7.09 | 8.22e-08 | 23 | – |
| CCCN(C(=O)CCl)C1CCS(=O)(=O)C1 (stereo not drawn) [Pin1-028] | – | −6.80 | 1.59e-07 | 16 | – |
| O=C(CCl)N(Cc1ccccc1-c1ccccc1)C1CCS(=O)(=O)C1 (stereo not drawn) [Pin1-2-10] | – | −6.89 | 1.3e-07 | 25 | – |
| O=C(CCl)N(Cc1cn(-c2ccc(CO)cc2)nn1)C1CCS(=O)(=O)C1 (stereo not drawn) [Compound P1-02-H08] | – | −5.88 | 1.32e-06 | – | 73 |
| O=C(CCl)NCC1CCS(=O)(=O)C1 (stereo not drawn) [PCM-0102896] | 42 | – | – | – | – |
| CC(=O)c1ccc(-n2cc(CN(C(=O)CCl)C3CCS(=O)(=O)C3)nn2)cc1 (stereo not drawn) [Compound P1-02-B04] | – | −5.90 | 1.26e-06 | – | 62 |
| O=C(CCl)N(c1ccc(F)cc1)C1C=CS(=O)(=O)C1 (stereo not drawn) [PCM-0102868] | 100 | – | – | – | – |
| O=C(CCl)N(C1CC1)C1CCS(=O)(=O)C1 (stereo not drawn) [PCM-0102832] | 72 | −7.22 | 6.02e-08 | – | – |
| O=C(CCl)N(C1CCCCC1)C1CCS(=O)(=O)C1 (stereo not drawn) [PCM-0102760] | 100 | −7.00 | 1e-07 | – | – |
| O=C(CCl)N(Cc1ccccc1)C1CCS(=O)(=O)C1 (stereo not drawn) [Pin1-437] | – | −6.82 | 1.51e-07 | – | – |
| O=C(CCl)N(c1ccccc1)C1CCS(=O)(=O)C1 (stereo not drawn) [PCM-0102755] | 83 | −6.81 | 1.54e-07 | – | – |
| O=C(CCl)N(Cc1ccco1)C1CCS(=O)(=O)C1 (stereo not drawn) [Pin1-128] | – | −6.83 | 1.47e-07 | 25 | – |
| O=C(CCl)NC1CCS(=O)(=O)C1 (stereo not drawn) [PCM-0102138] | 56 | −6.92 | 1.2e-07 | 0 | – |
| O=C(CCl)N(c1ccccc1)C1C=CS(=O)(=O)C1 (stereo not drawn) [PCM-0102372] | 100 | – | – | – | – |
| COc1ccc(-n2cc(CN(C(=O)CCl)C3CCS(=O)(=O)C3)nn2)cc1 (stereo not drawn) [Compound P1-04-B02] | – | −5.76 | 1.73e-06 | – | 69 |
| O=C(CCl)N(Cc1cn(-c2ccc(CO)c(F)c2)nn1)C1CCS(=O)(=O)C1 (stereo not drawn) [Compound P1-01-F08] | – | −5.88 | 1.32e-06 | – | 64 |
| O=C(CCl)N(CC1CCCO1)C1CCS(=O)(=O)C1 (stereo not drawn) [Pin1-838] | – | −6.85 | 1.41e-07 | 16 | – |
| CC(C)CN(C(=O)CCl)C1CCS(=O)(=O)C1 (stereo not drawn) [Pin1-3-15, 2-chloro-N-(sulfolan-3-yl)-N-isobutylacetamide] | – | −7.11 | 7.77e-08 | 21 | – |
| CC(C)(C)CN(C(=O)CCl)C1(C)CCS(=O)(=O)C1 (stereo not drawn) [Pin1-18] | – | −7.77 | 1.69e-08 | – | – |
| O=C(CCl)N(CC1CCCC1)C1CCS(=O)(=O)C1 (stereo not drawn) [Pin1-3-14, 2-chloro-N-(sulfolan-3-yl)-N-(cyclopentylmethyl)acetamide] | – | −7.15 | 7.03e-08 | – | – |
| CCN(C(=O)CCl)C1CCS(=O)(=O)C1 (stereo not drawn) [PCM-0102105] | 85 | −6.96 | 1.1e-07 | 0 | – |
| Cc1ccc(N(C(=O)CCl)C2C=CS(=O)(=O)C2)cc1 (stereo not drawn) [PCM-0102539] | 100 | – | – | – | – |
| Cc1cccc(N(C(=O)CCl)C2C=CS(=O)(=O)C2)c1 (stereo not drawn) [PCM-0102579] | 100 | – | – | – | – |
| Cc1ccc(N(C(=O)CCl)C2C=CS(=O)(=O)C2)cc1C (stereo not drawn) [PCM-0103082] | 69 | – | – | – | – |
